Assay results as given in patent US20170029451A1, “BRANCHED CHAIN ACYCLIC NUCLEOSIDE PHOSPHONATE ESTERS AND METHODS OF SYNTHESIS AND USES THEREOF” (CHIMERIX, INC., priority 2013, published 2017).
Where two headings read alike, the source gives them in different places.

Legend:
[1] = system: Human Cytomegalovirus (HCMV); experiment: HCMV EC50 in MRC-5 cells (qPCR of intracellular CMV DNA); type: cell-based
Description: Costar 96-well tissue culture plates were seeded with 20,000 MRC-5 cells/well in EMEM containing 2% Hyclone Standard Fetal Bovine Serum and 1% Hyclone Penicillin and Streptomycin. Outer wells were not used to minimize the edge-effect produced by extended incubations. Cells were inoculated with HCMV at an MOI of 0.01. Serial dilutions of test compounds were added to the cells and plates were incubated for 7 days at 37° C. in 5% CO2. […] Culture medium was gently removed from infected cells after the 7-day incubation. The cells were rinsed twice with ice-cold PBS, and then freeze/thawed once. Each well was incubated with 200 μL lysis buffer for 2 hours at 55° C. Lysis buffer included 0.5 mg/mL protease K, 50 mM KCl, 10 mM Tris-Cl pH 8.0, 2.5 mM MgCl2, 0.45% IGEPAL, and 0.45% Tween-20 dissolved in DEPC-treated water. Intracellular CMV DNA was measured by quantitative polymerase chain reaction (qPCR) using forward and reverse HCMV PCR primers, and a FAM-labeled probe. Absolute quantitation of viral copy number was performed using a standard curve with dilutions of a HCMV DNA amplicon containing sequences homologous to the amplified fragment. The following qPCR amplification conditions were used: 1 cycle at 95° C. for 10 minutes, followed by 45 cycles of 95° C. for 15 seconds and 60° C. for 60 seconds. The qPCR reactions were performed using an Applied Biosystems 7500 real Time PCR System. Gen 5 software (BioTek Instruments, Inc.) was used to calculate the concentration which inhibited the viral DNA levels of HCMV-infected MRC-5 cells by 50% (EC50).

[2] = Cytotoxicity in BCBL-1 cells; type: cell-based; conditions: human, cell line BCBL-1 (HHV-8 row)
Description: Cell viability in all assays with lymphocytes was assessed with the CellTiter-Glo Luminescent Cell Viability Assay (Promega). Briefly, assay plates were incubated at ambient temperature for 30 min then 50 µl of CellTiter-Glo reagent was added to each well and the plates were mixed for 2 min on an orbital shaker to lyse the cells. Plates were then incubated for an additional 10 min at ambient temperature and the luminescence was quantified on a luminometer. Standard methods were used to calculate drug concentrations that inhibited the proliferation of Akata, HSB-2, BCLB-1, or Molt-3 cells by 50% (CC50).

[3] = system: human foreskin fibroblast cells; experiment: Neutral red cytotoxicity assay in human foreskin fibroblast cells; conditions: read-out: VACV CC50, μm, parallel to VACV assay (second printing of Table 4)
HCV = HCV antiviral activity in Huh cells; type: cell-based; conditions: Hepatitis C virus, cell line Huh
HHV-6B = experiment: DNA hybridization assay for HHV-6B in MOLT-3 cells; type: cell-based, human herpes virus 6 (HHV-6); conditions: Homo sapiens; Virus HHV-6B, cell line MOLT-3
Description: Assays for EBV were performed in Akata cells that were induced to undergo a lytic infection with 50 μg/ml of a goat anti-human IgG antibody by standard methods. Experimental compounds were diluted in round bottom 96-well plates to yield concentrations ranging from 20 to 0.016 μM. Akata cells were added to the plates at a concentration of 4×10^4 cells per well and incubated for 72 h. For HHV-6 assays, compounds were serially diluted in 96-well plates then 1×10^4 uninfected HSB-2 or Molt-3 cells were added to each well. Infection was initiated by adding HHV-6A infected HSB-2 cells, or HHV-6B infected Molt-3 cells, at a ratio of approximately 1 infected cell for every 10 uninfected HSB-2 cells or Molt-3 cells respectively and incubated for 7 d at 37° C.
For all assays, 100 µl of denaturation buffer (1.2M NaOH, 4.5M […] NaCl) was added to each well to denature the DNA and a […] aliquot was aspirated through an Immobilon nylon membrane (Millipore, Bedford, Mass.) using a Biodot apparatus (Bio-Rad, Hercules, Calif.). The membranes were then allowed to dry before equilibration in DIG Easy Hyb (Roche Diagnostics, Indianapolis, Ind.) at 56° C. for 30 min. Specific digoxigenin (DIG)-labeled probes were prepared for each virus according to the manufacturer's protocol (Roche Diagnostics). […]

[4] = Cytotoxicity (CC50) in Vero cells; type: cell-based; conditions: African green monkey, cell line Vero (BKV row)
Description: Costar 96-well tissue culture plates were seeded with 10,000 Vero cells (ATCC)/well in DMEM (ATCC, Cat 30-2002) containing 2% Hyclone Standard Fetal Bovine Serum (FBS, Cat 5H30088.03) and 1% Hyclone Penicillin and Streptomycin (Cat SV30010). Outer wells were not used to minimize the edge-effect produced by extended incubations. Serial dilutions of test compounds were added to the cells and plates were incubated for 7 days at 37° C. in 5% CO2. After 7 days of incubation 40 μL of Cell Titer 96® Aqueous MTS Reagent (Promega, G111) was added as directed by manufacturer to the 200 iut media in each well and incubated at 37° C. until the untreated-cell controls developed an 490 nm absorbance between 1.1 and 1.8. The final absorbance readings were read using a BioTek Synergy 2, and Gen 5 software (BioTek Instruments, Inc.) was used to calculate the concentration which inhibited Vero cells by 50% (CC50).

[5] = CellTiter-Glo cytotoxicity assay in Akata cells; conditions: human
[6] = system: Influenza virus B/FL/4/2006; experiment: microbe, parasite or virus in culture; type: cell-based; conditions: unidentified influenza virus, MDCK, read-out: B/FL/4/2006 (EC50, μM)
[7] = Cytotoxicity in MEF cells; type: cell-based; conditions: mouse, cell line MEF (MCMV row)

Q: With CC(C)CCCCCCCCCCCCCCOCCCOP(=O)(O)COC(CO)Cn1ccc(=O)[nH]c1=O (centres unmarked) [Compound 12] as the compound, how does the EC50 ([1]; Human betaherpesvirus 5, MRC5, HCMV in MRC-5 cells (Table 7), read-out: CMV EC50) read?
A: Its EC50 is 0.027 µM.

Q: And the EC50 ([1]; Human betaherpesvirus 5, MRC5, Mean XC50 (Table 9), read-out: HCMV EC50)?
A: The EC50 was 0.017 µM.

Q: And the EC50 ([1]; Human betaherpesvirus 5, Virus HCMV, cell line MRC5 (Table 8), read-out: EC50)?
A: The EC50 was 0.017 µM.

Q: And the CC50 [2]?
A: Its CC50 is greater than 10 µM.

Q: What about the CC50 [3] of the same compound?
A: The CC50 was greater than 10 µM.

Q: And the EC50 (HCV)?
A: The EC50 was 0.57 µM.

Q: What about the EC50 (HHV-6B) of the same compound?
A: Its EC50 is 4.7 µM.

Q: And the CC50 at 7 days [4]?
A: The CC50 at 7 days was 93 µM.

Q: What about the CC50 [5] of the same compound?
A: Its CC50 is 18 µM.

Q: What about the EC50 [6] of the same compound?
A: Its EC50 is greater than 4 µM.

Q: What about the CC50 [7] of the same compound?
A: The CC50 was 60 µM.
